Measurements reported in patent US8143238B2, “Methods of increasing epidermal skin thickness by topical administration of a 19-nor containing vitamin D compound” (Wisconsin Alumni Research Foundation, priority 2008, dated 2012).

Key:
hairless C3H mouse = conditions: topical administration to skin of hairless C3H mouse; cited from earlier work
Rhino mice = assay: Epidermal thickness of Rhino mice after 3 weeks of daily topical administration (histological analysis); type: in vivo, mouse; conditions: for API-Treated Epidermal Thickness (% Vehicle): 70% ethanol/30% propylene glycol, mean ± SEM
Experimental: Methods. Animals and dose administration. Rhino mice 6-8 weeks old were dosed daily via the topical route. The mice were weighed three times per week. Doses of API were adjusted weekly based on body weight. The topical formulations dosage forms were made by mixing the API with two different topical carriers. One topical carrier consisted of 70 vol % propylene glycol and 30 vol % ethanol. The other topical carrier consisted of 30 vol % propylene glycol and 70 vol % ethanol. The topical vehicle control for a given comparative example was the vehicle carrier used in the API-formulated topical dosage form. Animals were euthanized 72 hours after administration of the final topical dose, and dorsal skin was collected for histological analysis.
Measurement of epidermal thickness.
Epidermal thickness was determined by histological analysis of tissue sections. Skin was fixed overnight in 4% paraformaldehyde at 4° C. with gentle agitation. The skin was dehydrated the following day in 100% methanol. Samples were embedded in paraffin. Nine sections, each measuring 10 μm and each separated by 150 μm, were taken from each mouse and stained with hematoxylin and eosin stain. Five of the nine sections were digitally imaged (6× magnification) for analysis of the epidermal thickness using Metamorph Imaging Software (single line function).
The thickness of the epidermis adjacent to each comedone (open or healed) on each respective image of the five sections was also then measured using a Wacom Intuos 3 Graphics Tablet interfaced with the software. The average width was determined for each Rhino mouse from multiple measurements. Individual epidermal thickness average was determined from a composite of measurements taken from all 5 images. Such average for each mouse was used to calculate the treatment group mean. Results in the figures are expressed in terms of mean±standard error of the mean.
Preparation of topical formulations and dosage forms containing the various API's including 2MBis P, CAGE-3, 24R-2MD2, VitIII (17-20E), NEL, VD-03, 2MPregna, 2MP, 20R-2MBisP, 2MTrisP, FF-44, FF-55, HPBS and 13Me2. Separate concentrated ethanolic stock solutions of each API were diluted to a predetermined dose concentration using a topical carrier vehicle. Two different carrier vehicles were used. One topical carrier consisted of 70 vol % propylene glycol and 30 vol % ethanol. The other topical carrier consisted of 30 vol % propylene glycol and 70 vol % ethanol. The vehicle was thoroughly mixed with the API. The topical dosing formulation and dosage form delivered a predetermined amount of API on a per kilogram body weight basis.
A 100 μL dose was administered to the back of the mouse. An average weight of 24-30 g/mouse was assumed initially in the dose volume calculations. Dosing volumes were adjusted weekly to deliver the predetermined desired dose amount of API based on the body weight of each animal.

keratinocytes in culture = conditions: cited from earlier work
[1] = 217 nmole/kgBW/day topical, 3 weeks, 70 vol. % ethanol/30 vol. % propylene glycol
[2] = 694 nmole/kgBW/day topical, 3 weeks, 70 vol. % ethanol/30 vol. % propylene glycol
[3] = topical API dose 217 nmol/kg daily, 3 weeks
[4] = topical API dose 694 nmol/kg daily, 3 weeks

## C=C1/C(=C\C=C2/CCC[C@]3(C)[C@@H]([C@H](C)CCCC(C)(C)O)CC[C@@H]23)C[C@@H](O)C[C@@H]1O [1,25(OH)2D3, 1α,25-dihydroxy-vitamin D3]
Hairless C3H mouse
  epidermal proliferation: induce epidermal proliferation
  epidermal thickness: increase epidermal thickness
Rhino mice; 6 nmole/kgBW daily topical, 3 weeks, 70 vol. % ethanol/30 vol. % propylene glycol
  epidermal thickness as compared to the vehicle-only control (in words): very modest increase in epidermal thickness
Rhino mice; topical API dose 6.0 nmol/kg daily, 3 weeks
  API-Treated Epidermal Thickness (% Vehicle): 118 ± 7 % Vehicle
Keratinocytes in culture
  proliferation of keratinocytes: inhibit the proliferation

## C=C1[C@H](O)CC(=C/C=C2\CCC[C@]3(C)[C@@H]([C@@H](C)CC)CC[C@@H]23)C[C@H]1O [2MBisP, 2-methylene-19-nor-20(S)-1α-hydroxy-bishomopregnacalciferol]
Rhino mice; [1]
  epidermal thickness as compared to the vehicle control (in words): significant increase in epidermal thickness
Rhino mice; [2]
  epidermal thickness as compared to the vehicle control (in words): significant increase in epidermal thickness
Rhino mice; doses of 217 and 694 nmole/kgBW/day topical, 3 weeks
  potency at increasing epidermal thickness relative to 20R-2MBisP: approximately one-half log more potent
Rhino mice; [3]
  API-Treated Epidermal Thickness (% Vehicle): 220 ± 8 % Vehicle
Rhino mice; [4]
  API-Treated Epidermal Thickness (% Vehicle): 231 ± 6 % Vehicle

## C=C1C(O)CC(=CC=C2CCCC3(C)C2CCC3C(C)C)CC1O (stereo not drawn) [2MP, 1α-hydroxy-2-methylene-19-nor-homopregnacalciferol]
Rhino mice; [1]
  epidermal thickness as compared to the vehicle control (in words): significant increase in epidermal thickness
Rhino mice; [3]
  API-Treated Epidermal Thickness (% Vehicle): 207 ± 8 % Vehicle

## C=C1[C@H](O)CC(=C/C=C2\CCC[C@]3(C)C(CC)CCC23)C[C@H]1O (stereo partly drawn) [2MPregna, 2-methylene-19-nor-1α-hydroxy-pregnacalciferol]
Rhino mice; [1]
  epidermal thickness as compared to the vehicle control (in words): significant increase in epidermal thickness
Rhino mice; [3]
  API-Treated Epidermal Thickness (% Vehicle): 183 ± 8 % Vehicle

## C=C1[C@H](O)CC(=C/C=C2\CCC[C@]3(C)[C@@H]([C@@H](C)CCC)CC[C@@H]23)C[C@H]1O [2MTrisP, 2-methylene-(20S)-19-nor-1α-hydroxy-trishomopregnacalciferol]
Rhino mice; [1]
  epidermal thickness as compared to the vehicle control (in words): significant increase in epidermal thickness
Rhino mice; [3]
  API-Treated Epidermal Thickness (% Vehicle): 221 ± 15 % Vehicle

## C=C1[C@H](O)CC(=C/C=C/CC(C)(C)C[C@@H](C)CCCC(C)(C)O)C[C@H]1O [13Me2, 13,13-dimethyl-des-C,D analog of (20S)-2-methylene-1α,25-dihydroxy-19-nor-vitamin D3]
Rhino mice; [1]
  epidermal thickness as compared to the vehicle control (in words): significant increase in epidermal thickness
Rhino mice; [3]
  API-Treated Epidermal Thickness (% Vehicle): 229 ± 12 % Vehicle

## C=C1[C@H](O)CC(=C/C=C2\CCC[C@]3(C)[C@@H]([C@H](C)CC)CC[C@@H]23)C[C@H]1O [20R-2MBisP, (20R)-1α-hydroxy-2-methylene-19-nor-bishomopregnacalciferol]
Rhino mice; [1]
  epidermal thickness as compared to the vehicle control (in words): some increase in epidermal thickness
Rhino mice; [2]
  epidermal thickness as compared to the vehicle control (in words): significant increase in epidermal thickness
Rhino mice; [3]
  API-Treated Epidermal Thickness (% Vehicle): 155 ± 7 % Vehicle
Rhino mice; [4]
  API-Treated Epidermal Thickness (% Vehicle): 209 ± 13 % Vehicle

## C=C1[C@H](O)CC(=C/C=C2\CCC[C@]3(C)C([C@H](C)/C=C/[C@@H](C)C(C)(C)O)CC[C@@H]23)C[C@H]1O (stereo partly drawn) [(24R)2MD2, 2-methylene-19-nor-(24R)-1α,25-dihydroxyvitamin D2]
Rhino mice; 2.33 nmole/kgBW/day topical, 3 weeks, 70 vol. % ethanol/30 vol. % propylene glycol
  epidermal thickness as compared to the vehicle control (in words): significant increase in epidermal thickness
Rhino mice; topical API dose 2.3 nmol/kg daily, 3 weeks
  API-Treated Epidermal Thickness (% Vehicle): 189 ± 13 % Vehicle

## C=C1[C@H](O)CC(=C/C=C2\CCC[C@]3(C)[C@@H]([C@@H](C)CCCC4(O)CCCC4)CC[C@@H]23)C[C@H]1O [CAGE-3, 19-nor-26,27-dimethylene-20(S)-2-methylene-1α,25-dihydroxyvitamin D3]
Rhino mice; 0.9 ng/day (ca. 100 picomole/kgBW/day), 0.45 ng/day from day 10, 0.22 ng/day (25 picomole/kgBW/day) from day 19, vehicle 30 vol. % ethanol/70 vol. % propylene glycol
  epidermal thickness as compared to the vehicle control (in words): increase in epidermal thickness
Rhino mice; lowest dose 0.0079 nmol/kgBW daily topical, 3 weeks, 70 vol. % ethanol/30 vol. % propylene glycol
  epidermal thickness compared to the vehicle control (in words): some increase in epidermal thickness
Rhino mice; three higher doses 0.025, 0.079 and 0.25 nmol/kgBW daily topical, 3 weeks, 70 vol. % ethanol/30 vol. % propylene glycol
  epidermal thickness as compared to the control vehicle (in words): significant increase in epidermal thickness
Rhino mice; topical API dose 0.025 nmol/kg daily, 3 weeks
  API-Treated Epidermal Thickness (% Vehicle): 162 ± 11 % Vehicle
Rhino mice; topical API dose 0.079 nmol/kg daily, 3 weeks
  API-Treated Epidermal Thickness (% Vehicle): 274 ± 14 % Vehicle
Rhino mice; topical API dose 0.25 nmol/kg daily, 3 weeks
  API-Treated Epidermal Thickness (% Vehicle): 293 ± 8 % Vehicle

## C=C1[C@H](O)CC(=C/C=C2\CCC[C@@]3(C)C2CCC3[C@H](C)CC(F)F)C[C@H]1O (stereo partly drawn) [FF-44, 2-methylene-(20R)-23,23-difluoro-1α-hydroxy-19-nor-bishomopregnacalciferol]
Rhino mice; [1]
  epidermal thickness as compared to the vehicle control (in words): significant increase in epidermal thickness
Rhino mice; [3]
  API-Treated Epidermal Thickness (% Vehicle): 206 ± 22 % Vehicle

## C=C1[C@H](O)CC(=C/C=C2\CCC[C@@]3(C)C2CCC3[C@@H](C)CC(F)F)C[C@H]1O (stereo partly drawn) [FF-55, 2-methylene-(20S)-23,23-difluoro-1α-hydroxy-19-nor-bishomopregnancalciferol]
Rhino mice; [1]
  epidermal thickness as compared to the vehicle control (in words): significant increase in epidermal thickness
Rhino mice; [3]
  API-Treated Epidermal Thickness (% Vehicle): 225 ± 9 % Vehicle

## CC(C)C[C@H](C)[C@H]1CC[C@H]2/C(=C/C=C3C[C@@H](O)C(=CCCO)[C@H](O)C3)CCC[C@]12C [HPBS, 2-(3′hydroxypropyl-1′,2′-idene)-19,23,24-trinor-(20S)-1α-hydroxyvitamin D3]
Rhino mice; 217 nmole/kgBW/day for 3 days (2 mice) or 10 days (4 mice), then 122 nmole/kgBW/day, 3 weeks daily topical, 70 vol. % ethanol/30 vol. % propylene glycol
  epidermal thickness as compared to the control vehicle (in words): significant increase in epidermal thickness
Rhino mice; topical API dose 217 to 122 nmol/kg daily (dose changed on day 10), 3 weeks
  API-Treated Epidermal Thickness (% Vehicle): 189 ± 13 % Vehicle

## C=C1[C@H](O)CC(=C/C=C2\CCC[C@]3(C)[C@@H]([C@H](C)CCC[C@H](C)O)CC[C@@H]23)C[C@H]1O [NEL, 2-methylene-(20R,25S)-19,26-dinor-1α,25-dihydroxyvitamin D3]
Rhino mice; 7.5 and 25 nmole/kgBW/day topical, 3 weeks, 70 vol. % ethanol/30 vol. % propylene glycol
  epidermal thickness, dose dependence (in words): dose-dependent increase in epidermal thickness
Rhino mice; topical API dose 7.5 nmol/kg daily, 3 weeks
  API-Treated Epidermal Thickness (% Vehicle): 145 ± 4 % Vehicle
Rhino mice; topical API dose 25 nmol/kg daily, 3 weeks
  API-Treated Epidermal Thickness (% Vehicle): 189 ± 11 % Vehicle

## C=C1[C@H](O)CC(=C/C=C2\CCC[C@@H]3[C@@H]([C@@H](C)CCCC(C)(C)O)CC[C@@H]23)C[C@H]1O [VD-03, 2-methylene-18,19-dinor-(20S)-1α,25-dihydroxyvitamin D3]
Rhino mice; topical API dose 0.62 nmol/kg daily, 3 weeks
  API-Treated Epidermal Thickness (% Vehicle): 225 ± 6 % Vehicle

## C=C1[C@H](O)CC(=C/C=C2\CCC[C@]3(C)/C(=C(\C)CCCC(C)(C)O)CC[C@@H]23)C[C@H]1O [Vit-III 17-20E, 2-methylene-1α,25-dihydroxy-(17E)-17(20)-dehydro-19-nor-vitamin D3]
Rhino mice; 24.1 nmole/kgBW/day topical, 3 weeks, 70 vol. % ethanol/30 vol. % propylene glycol
  epidermal thickness as compared to the vehicle control (in words): significant increase in epidermal thickness
Rhino mice; topical API dose 24 nmol/kg daily, 3 weeks
  API-Treated Epidermal Thickness (% Vehicle): 216 ± 13 % Vehicle
